Converted amounts (≈) assume the structure as drawn. Read-outs that look alike come from different tables or passages of the source.
Columns and labels:
[1] = system: Influenza virus A/WSN/33 (H1N1); test: microbe, parasite or virus in culture; type: cell-based; settings: 72 h
[2] = in vitro; settings: bovine
[3] = Cytotoxicity for MDCK cells; type: cell-based; settings: dog, Cell: MDCK, no virus
Protocol: As in the measurement of anti-viral activity, samples were added to the cells, and incubated with 50 µl of culture medium instead of the viral dilution. The results are expressed as CC50 which is defined as the concentration of the compound at which 50% of the cells are killed due to the toxicity of the compound.
MDCK cells (derived from dog kidney) were cultured on 12-well plates using E-MEM supplemented by 10% fetal bovine serum. To each well was added 250 µl each of a viral dilution prepared by 10-fold serial dilution with E-MEM, followed by incubation for one hour under 5% CO2 at 37 °C. After removal of the viral solution, one ml of E-MEM containing 0.8% agarose, 0.5% bovine serum albumin and 2 µg/ml trypsin, and an appropriately diluted test compound was added. The plate was inverted, and incubated for 3 days under 5% CO2 at 37 °C. The number of plaques formed was counted, and the IC50 value, which is the concentration of the compound at which the number of plaques decreases by 50% compared to that of control which lacks the test compound, was determined. As in the above section 2), CC50 values for MDCK cells were determined.

[4] = system: A/WSN/33 (H1N1); test: Anti-viral activities against subtypes of influenza A and B (plaque number); type: cell-based; settings: Influenza A virus, MDCK, 72 h
[5] = system: A/Kumamoto/5/67 (H2N2); test: microbe, parasite or virus in culture; type: cell-based; settings: Influenza A virus, H2N2, MDCK, 72 h
[6] = system: A/91/N796 (H3N2); test: Anti-viral activities against subtypes of influenza A and B (plaque number); type: cell-based; settings: Influenza A virus, H3N2, MDCK, 72 h
[7] = system: A/Osaka/5/70 (H3N2); test: as above; type: cell-based; settings: Influenza A virus, H3N2, MDCK, 72 h
[8] = system: B/91N759; test: as above; type: cell-based; settings: Influenza B virus, MDCK, 72 h
[9] = viral strain: Influenza virus A/WSN/33 (H1N1), Cell: MDBK, […], 3 days, read-out: IC50

Structure (SMILES)	IC50 [1, 9] [µg/mL]	CC50 [2] [µg/mL]	further results
C[C@H]1CC[C@H]2C(C)(C)[C@@H](NC(=O)Nc3ccccc3)CC[C@]23Oc2c(c(O)cc4c2CNC4=O)C[C@]13C [Compound (47e), (6aR, 7S, 9aS, 11S, 13aS)-2,3,6,6a, 7,8,9,9a, 10, 11, 12, 13-dodecahydro-5-hydroxy-6a, 7, 10, 10-tetramethyl-11-(3-phenylureido)-3-oxo-1H-benzo[8,8a][1]benzopyrano[2,3-e]isoindole]	0.025 (≈ 0.0496 µM)	> 10	
C[C@H]1CC[C@H]2C(C)(C)[C@@H](O)[C@@H](O)C[C@]23Oc2c(c(O)cc4c2CNC4=O)C[C@]13C [Compound (50a), (6a R, 7 S, 9a S, 11 R, 12 S, 13a S)-2,3,6,6a, 7,8,9,9a, 10, 11, 12, 13-dodecahydro-5,11,12-trihydroxy-6a, 7, 10, 10-tetramethyl-3-oxo-1H-benzo[8,8a][1]benzopyrano[2,3-e]isoindole]	0.004 (≈ 0.00996 µM)	> 40	
CC(=O)O[C@H]1C[C@@]23Oc4c(c(O)cc5c4CNC5=O)C[C@]2(C)[C@@H](C)CC[C@H]3C(C)(C)[C@H]1O [Compound (50b), (6a R, 7 S, 9a S, 11 R, 12 S, 13a S)-12-acetoxy-2,3,6,6a,7,8,9,9a, 10, 11, 12, 13-dodecahydro-5,11-dihydroxy-6a, 7, 10, 10-tetramethyl-3-oxo-1H-benzo[8,8a][1]benzopyrano[2,3-e]isoindole]	0.01 (≈ 0.0225 µM)	> 10	
C[C@H]1CC[C@H]2C(C)(C)[C@@H](O)[C@@H](OC(=O)c3ccccc3)C[C@]23Oc2c(c(O)cc4c2CNC4=O)C[C@]13C [Compound (50c), (6a R, 7 S, 9a S, 11 R, 12 S, 13a S)-12-benzoyloxy-2,3,6,6a, 7,8,9,9a, 10, 11, 12, 13-dodecahydro-5,11-dihydroxy-6a, 7, 10, 10-tetramethyl-3-oxo-1H-benzo[8,8a][1]benzopyrano[2,3-e]isoindole]	0.05 (≈ 0.0989 µM)	5 to 10 (≈ 9.89 to 19.8 µM)	
C[C@H]1CC[C@H]2C(C)(C)[C@@H](O)[C@@H](OS(C)(=O)=O)C[C@]23Oc2c(c(O)cc4c2CNC4=O)C[C@]13C [Compound (50d), (6a R, 7 S, 9a S, 11 R, 12 S, 13a S)-2,3,6,6a, 7,8,9,9a, 10, 11,12,13-dodecahydro-5,11-dihydroxy-6a, 7,10, 10-tetramethyl-12-methanesulfonyloxy-3-oxo-1H-benzo[8,8a][1]benzopyrano[2,3-e]isoindole]	0.0016 (≈ 0.00334 µM)	> 10	
C[C@H]1CC[C@H]2C(C)(C)[C@@H](O)[C@@H](OS(=O)(=O)c3ccccc3)C[C@]23Oc2c(c(O)cc4c2CNC4=O)C[C@]13C [Compound (50e), (6a R, 7 S, 9a S, 11 R, 12 S, 13a S)-2,3,6,6a, 7,8,9,9a, 10, 11,12,13-dodecahydro-5,11-dihydroxy-6a, 7, 10, 10-tetramethyl-12-phenylsulfonyloxy-3-oxo-1H-benzo[8,8a][1]benzopyrano[2,3-e]isoindole]	0.0016 to 0.0032 (≈ 0.00295 to 0.00591 µM)	> 10	
C[C@H]1CC[C@H]2C(C)(C)C(=NO)CC[C@]23Oc2c(c(O)cc4c2CNC4=O)C[C@]13C [Compound (51a), (6a R, 7 S, 9a S, 13a S)-2,3,6,6a, 7,8,9,9a, 10, 11, 12, 13-dodecahydro-5-hydroxy-11-hydroxyimino-6a, 7, 10, 10-tetramethyl-3-oxo-1H-benzo[8,8a][1]benzopyrano[2,3-e]isoindole]	0.0016 (≈ 0.00402 µM)	> 10	
CON=C1CC[C@@]23Oc4c(c(O)cc5c4CNC5=O)C[C@]2(C)[C@@H](C)CC[C@H]3C1(C)C [Compound (51b), (6a R, 7 S, 9a S, 13a S)-2,3,6,6a, 7,8,9,9a, 10, 11, 12, 13-dodecahydro-5-hydroxy-11-methoxyimino-6a, 7, 10, 10-tetramethyl-3-oxo-1H-benzo[8,8a][1]benzopyrano[2,3-e]isoindole]	0.003 (≈ 0.00727 µM)	5 to 10 (≈ 12.1 to 24.2 µM)	
C[C@H]1CC[C@H]2C(C)(C)C(=NNC(N)=O)CC[C@]23Oc2c(c(O)cc4c2CNC4=O)C[C@]13C [Compound (51d), (6a R, 7 S, 9a S, 13a S)-2,3,6,6a, 7,8,9,9a, 10, 11, 12, 13-dodecahydro-5-hydroxy-6a, 7, 10, 10-tetramethyl-3-oxo-11-ureidoimino-1H-benzo[8,8a][1]benzopyrano[2,3-e]isoindole]	0.005 (≈ 0.0113 µM)	> 10	
C[C@H]1CC[C@H]2C(C)(C)C(=NN3CCOCC3)CC[C@]23Oc2c(c(O)cc4c2CNC4=O)C[C@]13C [Compound (51f), (6aR, 7S, 9aS, 13aS)-2,3,6,6a, 7,8,9,9a, 10, 11, 12, 13-dodecahydro-5-hydroxy-6a, 7, 10, 10-tetramethyl-11-(1-oxa-4-azacyclohex-4-yl)imino-3-oxo-1H-benzo[8,8a][1]benzopyrano[2,3-e]isoindole]	0.05 (≈ 0.107 µM)	25 (≈ 53.5 µM)	
CC(=O)O[C@@H]1C(=NO)C[C@@]23Oc4c(c(O)cc5c4CNC5=O)C[C@]2(C)[C@@H](C)CC[C@H]3C1(C)C [Compound (53b), (6aR, 7S, 9aS, 11S, 13aS)-11-acetoxy-2,3,6,6a, 7,8,9,9a, 10, 11, 12, 13-dodecahydro-5-hydroxy-12-hydroxyimino-6a, 7, 10, 10-tetramethyl-3-oxo-1H-benzo[8,8a][1]benzopyrano[2,3-e]isoindole]	0.08 (≈ 0.175 µM)	> 10	
C[C@H]1CC[C@H]2C(C)(C)[C@@H](O)CC[C@]23Oc2c(c(OP(=O)(O)O)cc4c2CNC4=O)C[C@]13C.[Na] [Compound (59a), (6aR, 7S, 9aS, 11S, 13aS)-2,3,6,6a, 7,8,9,9a, 10, 11, 12, 13-dodecahydro-11-hydroxy-5-dihydroxyphosphinyloxy-6a, 7,10, 10-tetramethyl-3-oxo-1H-benzo[8,8a][1]benzopyrano[2,3-e]isoindole monosodium salt]		> 10	IC50 ([1]; H1N1|WSN, MDBK): 0.001 µg/mL
C[C@H]1CC[C@H]2C(C)(C)[C@H](O)CC[C@]23Oc2c(c(OP(=O)(O)O)cc4c2CNC4=O)C[C@]13C.[Na] [Compound (59b), (6a R, 7 S, 9a S, 11 R, 13a S)-2,3,6,6a, 7,8,9,9a, 10, 11, 12, 13-dodecahydro-11-hydroxy-5-dihydroxyphosphinyloxy-6a, 7, 10,10-tetramethyl-3-oxo-1H-benzo[8,8a][1]benzopyrano[2,3-e]isoindole monosodium salt]		> 10	IC50 ([1]; H1N1|WSN, MDBK): 0.001 µg/mL
C[C@H]1CC[C@H]2C(C)(C)C(=NO)CC[C@]23Oc2c(c(OP(=O)(O)O)cc4c2CNC4=O)C[C@]13C.[Na] [Compound (64), (6aR, 7S, 9aS, 13aS)-2,3,6,6a, 7,8,9,9a, 10, 11, 12, 13-dodecahydro-11-hydroxyimino-5-dihydroxyphosphinyloxy-6a, 7, 10, 10-tetramethyl-3-oxo 1H-benzo[8,8a][1]benzopyrano[2,3-e]isoindole monosodium salt]		> 10	IC50 ([1]; H1N1|WSN, MDBK): 0.001 µg/mL
C[C@@H]1NC(=O)c2cc(O)c3c(c21)O[C@@]12CC[C@H](O)C(C)(C)[C@@H]1CC[C@H](C)[C@@]2(C)C3 [Compound (67a), (1S, 6aR, 7S, 9aS, 11S, 13aS)-2,3,6,6a, 7,8,9,9a, 10, 11, 12, 13-dodecahydro-5, 11-dihydroxy-1,6a, 7, 10, 10-pentamethyl-3-oxo-1H-benzo[8,8a][1]benzopyrano[2,3-e]isoindole]	0.016 (≈ 0.04 µM)	6.3 to 12.5 (≈ 15.8 to 31.3 µM)	
C[C@H]1NC(=O)c2cc(O)c3c(c21)O[C@@]12CC[C@H](O)C(C)(C)[C@@H]1CC[C@H](C)[C@@]2(C)C3 [Compound (67b), (1R, 6aR, 7S, 9aS, 11S, 13aS)-2,3,6,6a, 7,8,9,9a, 10, 11, 12, 13-dodecahydro-5, 11-dihydroxy-1,6a, 7, 10, 10-pentamethyl-3-oxo-1H-benzo[8,8a][1]benzopyrano[2,3-e]isoindole]	0.032 (≈ 0.0801 µM)	25 to 50 (≈ 62.6 to 125 µM)	
C[C@H]1CC[C@H]2C(C)(C)[C@H](O)CC[C@]23Oc2c(c(O)cc4c2C(=O)NC4=O)C[C@]13C [Compound (70), (6aR, 7S, 9aS, 11R, 13aS)-2,3,6,6a, 7,8,9,9a, 10, 11, 12, 13-dodecahydro-5, 11-dihydroxy-6a, 7, 10, 10-tetramethyl-13-dioxo-1H-benzo[8,8a][1]benzopyrano[2,3-e]isoindole]	0.008 (≈ 0.02 µM)		CC50 at 72 h ([2]; mdbk cells): 12.5 to 25 µg/mL (≈ 31.3 to 62.6 µM)
C[C@H]1CC[C@H]2C(C)(C)[C@@H](O)CC[C@]23Oc2c(c(O)cc4c2CNC4=O)C[C@]13C [SQ-02-S5(2), (6a R, 7S, 9a S, 11 S, 13a S)-2,3,6,6a, 7,8,9,9a, 10, 11, 12, 13-dodecahydro-5, 11-dihydroxy-6a, 7, 10, 10-tetramethyl-3-oxo-1H-benzo[8,8a][1]benzopyrano[2,3-e]isoindole]			CC50 at 3 days [3]: 25 µg/mL (≈ 64.9 µM); IC50 [4]: 0.001 to 0.01 µg/mL (≈ 0.00259 to 0.0259 µM); IC50 [5]: 0.1 to 1 µg/mL (≈ 0.259 to 2.59 µM); IC50 [6]: 1 µg/mL (≈ 2.59 µM); IC50 [7]: 0.1 to 1 µg/mL (≈ 0.259 to 2.59 µM); IC50 [8]: 1 µg/mL (≈ 2.59 µM)
